The record followed here is ChEMBL document CHEMBL4616700, “Novel HIV-1 Protease Inhibitors with Morpholine as the P2 Ligand to Enhance Activity against DRV-Resistant Variants” (ACS Med Chem Lett, 2020).

The subject of test [1] is Human immunodeficiency virus 1. Briefly: Antiviral activity against wild type HIV-1. The test is classed as functional, organism-based.
In test [2] the target is Human immunodeficiency virus type 1 protease (Human immunodeficiency virus 1, UniProt Q72874). Description: Inhibition of wild type HIV1 protease expressed in Escherichia coli using Arg-Glu (EDANS)-Ser-Gln-Asn-Tyr-Pro-Ile-Val-Gln-Lys(DABCYL)-Arg as substrate preincubated for 20 to 30 mins followed by substrate addition and measured for 10 mins by FRET assay.
Test [3] has as its system Human immunodeficiency virus 1. Description: Potency index, ratio of Darunavir IC50 to compound IC50 for antiviral activity against wild type HIV-1. The test is classed as functional.
Test [4] has as its system Human immunodeficiency virus 1. Description: Antiviral activity against VSV-G pseudotyped HIV1 NL4-3 infected in human SupT1 cells assessed as inhibition of early stage viral infection at 10 uM after 48 hrs by luciferase assay relative to control. In kind it is functional. To be noted: Human immunodeficiency virus 1, NL4-3, SUP-T1, 48 h.
Test [5] has as its system Human immunodeficiency virus 1. Briefly: Antiviral activity against VSV-G pseudotyped wild type HIV1 NL4-3 in human SupT1 cells infected with supernatants of virus particles extracted from human 293T cells infected with wild type HIV1 NL4-3 incubated for 48 hrs assessed as inhibition of late stage viral infection by single-round infection based luciferase reporter assay. The test is classed as functional, organism-based. To be noted: Human immunodeficiency virus 1, NL4-3, 48 h.

For test [6], the system named is Human immunodeficiency virus 1. Briefly: Antiviral activity against VSV-G pseudotyped darunavir-resistant HIV1 NL4-3 in human SupT1 cells infected with supernatants of virus particles extracted from human 293T cells infected with darunavir-resistant HIV1 NL4-3 incubated for 48 hrs assessed as inhibition of late stage viral infection by single-round infection based luciferase reporter assay. The test is classed as functional, organism-based. To be noted: Human immunodeficiency virus 1, NL4-3, 48 h. Background: A reporter such as luciferase makes a cellular process visible.

Test [7] concerns the target Human immunodeficiency virus type 1 protease (Human immunodeficiency virus 1) (UniProt Q72874). Briefly: Potency index, ratio of Darunavir Ki to compound Ki for inhibition of wild type HIV1 protease expressed in Escherichia coli using Arg-Glu (EDANS)-Ser-Gln-Asn-Tyr-Pro-Ile-Val-Gln-Lys(DABCYL)-Arg as substrate preincubated for 20 to 30 mins followed by substrate addition and measured for 10 mins by FRET assay.

The test system of test [8] is Human immunodeficiency virus 1. Briefly: Antiviral activity against VSV-G pseudotyped HIV1 NL4-3 in human TZM-bl cells infected with virus particles extracted from human SupT1 cells infected with HIV1 NL4-3 at 10 uM incubated for 48 hrs assessed as inhibition of late stage viral infection by luciferase assay relative to control. To be noted: Human immunodeficiency virus 1, NL4-3, TZM. The test is classed as functional.

By IC50 is commonly meant the concentration needed to halve the response being measured. A high value points to lower potency. What is called Ki is a dissociation constant, usually derived from enzyme kinetics or from competition with a known ligand. Lower therefore signals tighter binding. In turn, `CC(C)CN(C[C@@H](O)[C@H](Cc1ccccc1)NC[C@H](O)CN1CCOCC1)S(=O)(=O)c1ccc(N)cc1` yielded an IC50 in test [1] of 881 nM. The compound further returned a Ki in test [2] of 197 nM.
In general, inhibition refers to the drop in the measured response relative to a control, in per cent. What is called EC50 is the concentration needed to bring the measured effect to its halfway point. As to `COc1ccc(S(=O)(=O)N(CC(C)C)C[C@@H](O)[C@H](Cc2ccccc2)NC(=O)N2CCOCC2)cc1`, the “Ratio IC50” value in test [3] was 2. For the same compound, the inhibition at 10 µM is 12% in test [4] and 91% in test [8]. In test [1], this compound came in with a concentration for half-maximal inhibition (IC50) of 0.95 nM. For the same compound, the values for the EC50 in test [5] and in test [6] were 2000 nM and 4900 nM, respectively. Also, in test [2], the Ki was 0.21 nM. Moreover, the Ratio Ki in test [7] is 2.
On to `COc1ccc(S(=O)(=O)N(CC(C)C)C[C@@H](O)[C@H](Cc2ccccc2)NCC(=O)N2CCOCC2)cc1`, for which the IC50 in test [1] was 1330 nM. This compound gave a Ki in test [2] of 298 nM.
Turning to `CC(C)CN(C[C@@H](O)[C@H](Cc1ccccc1)NC(=O)O[C@H]1CO[C@H]2OCC[C@H]21)S(=O)(=O)c1ccc(N)cc1`, the EC50 is 3.9 nM in test [5] and 240 nM in test [6]. In addition, the inhibition at 10 µM in test [8] turned out to be 100%.
`CC(C)CN(C[C@@H](O)[C@H](Cc1ccccc1)NC(=O)CN1CCO[C@H](C)C1)S(=O)(=O)c1ccc(C(F)(F)F)cc1` yielded an IC50 in test [1] of 272 nM. Further, the affinity in test [2], expressed as Ki, was 61 nM.
As to `CC(C)CN(C[C@@H](O)[C@H](Cc1ccccc1)NC(=O)OCCN1CCOCC1)S(=O)(=O)c1ccc(N)cc1`, 3.85 nM corresponded to half-maximal inhibition in test [1] (IC50). In addition, the Ki in test [2] turned out to be 0.86 nM.
`CC(C)CN(C[C@@H](O)[C@H](Cc1ccccc1)NCC(=O)N1CCOCC1)S(=O)(=O)c1ccc(C(F)(F)F)cc1` showed an IC50 in test [1] of 568 nM. This compound also yielded a Ki in test [2] of 127 nM.
Consider `CC(C)CN(C[C@@H](O)[C@H](Cc1ccccc1)NC(=O)CN1CCO[C@H](C)C1)S(=O)(=O)c1ccc(N)cc1`, for which the IC50 in test [1] is 84.6 nM. The compound also had a Ki in test [2] of 18.9 nM.
In test [1], `COc1ccc(S(=O)(=O)N(CC(C)C)C[C@@H](O)[C@H](Cc2ccccc2)NCCN2CCOCC2)cc1` yielded an IC50 of 1110 nM. This compound yielded a Ki in test [2] of 250 nM.
In test [1], `COc1ccc(S(=O)(=O)N(CC(C)C)C[C@@H](O)[C@H](Cc2ccccc2)NC[C@H](O)CN2CCOCC2)cc1` registered an IC50 of 1500 nM. This compound also yielded a Ki in test [2] of 750 nM.
Regarding `COc1ccc(S(=O)(=O)N(CC(C)C)C[C@@H](O)[C@H](Cc2ccccc2)NC(=O)CN2CCO[C@H](C)C2)cc1`, the IC50 in test [1] turned out to be 63.6 nM. In addition, the Ki in test [2] was determined as 14.2 nM.
As to `CC(C)CN(C[C@@H](O)[C@H](Cc1ccccc1)NC(=O)CN1CCO[C@@H](C)C1)S(=O)(=O)c1ccc(C(F)(F)F)cc1`, in test [1], the IC50 worked out at 419 nM. In test [2], this compound yielded a Ki of 93.9 nM.
In test [1], `CC(C)CN(C[C@@H](O)[C@H](Cc1ccccc1)NCC(=O)N1CCOCC1)S(=O)(=O)c1ccc(N)cc1` displayed an IC50 of 102 nM. In test [2], this compound showed a Ki of 22.8 nM.
`CC(C)CN(C[C@@H](O)[C@H](Cc1ccccc1)NC(=O)CN1CCOCC1)S(=O)(=O)c1ccc(N)cc1` gave an IC50 in test [1] of 37.7 nM. In test [2], this compound gave a Ki of 8.45 nM.
`COc1ccc(S(=O)(=O)N(CC(C)C)C[C@@H](O)[C@H](Cc2ccccc2)NC(=O)CN2CCO[C@@H](C)C2)cc1` registered an IC50 in test [1] of 25.5 nM. Besides, the affinity in test [2] corresponds to a Ki of 5.71 nM.
As for `CC(C)CN(C[C@@H](O)[C@H](Cc1ccccc1)NCCN1CCOCC1)S(=O)(=O)c1ccc(N)cc1`, in test [1], the IC50 was found to be 429 nM. Besides, in test [2], affinity was put at a Ki of 96.2 nM.
Consider `COc1ccc(S(=O)(=O)N(CC(C)C)C[C@@H](O)[C@H](Cc2ccccc2)NC(=O)OCCN2CCOCC2)cc1`, for which the “Ratio IC50” value in test [3] came to 4. Moreover, the inhibition at 10 µM was determined as 5% in test [4] and 94% in test [8]. In test [1], half-maximal inhibition (IC50) required 0.41 nM. Also, the concentration for a half-maximal effect (EC50) in test [5] was found to be 1200 nM; in test [6], 9500 nM. In test [2], this compound gave a Ki of 0.09 nM. In addition, the Ratio Ki in test [7] turned out to be 4.
As for `CC(C)CN(C[C@@H](O)[C@H](Cc1ccccc1)NC(=O)CN1CCOCC1)S(=O)(=O)c1ccc(C(F)(F)F)cc1`, in test [1], 44.2 nM corresponded to half-maximal inhibition (IC50). In addition, the affinity in test [2] corresponds to a Ki of 9.9 nM.
The matching figures for `COc1ccc(S(=O)(=O)N(CC(C)C)C[C@@H](O)[C@H](Cc2ccccc2)NC(=O)CN2CCOCC2)cc1`: 33.2 nM and 7.44 nM.
For the compound `CC(C)CN(C[C@@H](O)[C@H](Cc1ccccc1)NC(=O)CN1CCO[C@@H](C)C1)S(=O)(=O)c1ccc(N)cc1`, the IC50 in test [1] is 127 nM. The Ki in test [2] turned out to be 28.4 nM.
In test [1], `CC(C)CN(C[C@@H](O)[C@H](Cc1ccccc1)NC(=O)OCCN1CCOCC1)S(=O)(=O)c1ccc(C(F)(F)F)cc1` had an IC50 of 9.92 nM. The Ki in test [2] is 2.22 nM.
Take `CC(C)CN(C[C@@H](O)[C@H](Cc1ccccc1)NC(=O)N1CCOCC1)S(=O)(=O)c1ccc(C(F)(F)F)cc1`: the IC50 in test [1] came to 75 nM. Moreover, the affinity in test [2] corresponds to a Ki of 16.8 nM.
The matching figures for `CC(C)CN(C[C@@H](O)[C@H](Cc1ccccc1)NC(=O)N1CCOCC1)S(=O)(=O)c1ccc(N)cc1`: 32.5 nM and 7.28 nM.
`CC(C)CN(C[C@@H](O)[C@H](Cc1ccccc1)NC[C@H](O)CN1CCOCC1)S(=O)(=O)c1ccc(C(F)(F)F)cc1` displayed an IC50 in test [1] of 1500 nM. Further, the Ki in test [2] amounted to 651 nM.
`CC(C)CN(C[C@@H](O)[C@H](Cc1ccccc1)NCCN1CCOCC1)S(=O)(=O)c1ccc(C(F)(F)F)cc1` came in with an IC50 in test [1] of 1500 nM. This compound also had a Ki in test [2] of 336 nM.
